The text below walks through data of paper PMC7329800, “Reduction of the serotonin 5-HT1B and 5-HT2A receptor-mediated contraction of human pulmonary artery by the combined 5-HT1B receptor antagonist and serotonin transporter inhibitor LY393558” (Pharmacological Reports, 2020).

The structures appear in SMILES notation. Where “and” joins values, the source holds several entries; their conditions need not be identical. Equal entries are not always repeated. Where two headings read alike, the source gives them in different places.

One assay concerns SERT. Particulars: cited from earlier work.
Assay [1] relates to human pulmonary arteries. Briefly: Influence of antagonists/inhibitors on 5-HT-induced vasoconstriction of isolated human pulmonary arteries. In kind it is cell-based. Particulars: for rightward shift of the CRC for 5-HT (factor): ketanserin 0.1 µM, SB224289 0.2 µM, GR55562 1 µM. As for the experimental part: (§1) Lung tissue was received from 29 men and 5 women (mean age 65 ± 2 years) with lung carcinoma (without PAH) undergoing lobectomy or pneumonectomy. Before the operation, they received cephalosporins and heparin as anti-infection and antithrombotic prophylaxis, respectively. Isolation of hPAs has been described previously. When necessary, endothelium was disrupted by rubbing of the lumen with horse hair. Arterial rings (3–5 mm in length and 2–4 mm in outer diameter) were mounted in 10 ml organ baths containing Tyrode’s solution [17] gassed with 95% O2 and 5% CO2 (37 °C, pH 7.4). Resting tension ranged from 19.6 to 24.5 mN (equivalent to transmural pressure of ~ 16 mmHg). Muscle tension was recorded by a force displacement transducer (BIO-SYS-TECH). After equilibration, rings were exposed to high KCl (60 mM) Tyrode’s solution (equimolar substitution of NaCl by KCl) to check tissue viability and maximum contraction and to phenylephrine (1 µM) followed by acetylcholine (10 µM) to verify if the endothelium is intact. […]. Concentrations of antagonists and citalopram were taken from previous studies. In each preparation, only one experimental curve was determined.
(§2) Results are given as mean ± SEM from n patients. Contractile responses were shown as percentages of the response to KCl 60 mM. GraphPad Prism 5.0 software was used to plot the mean data as sigmoidal CRCs. CRCs were used to determine potency (pEC50) and maximal effect (Emax) of agonists.

A further assay addresses T1, 5-HT1B/1DR (Homo sapiens, UniProt P28222).
T1 construct: Arterial rings (3–5 mm in length and 2–4 mm in outer diameter) were mounted in 10 ml organ baths; from tissue; host or cells: human pulmonary artery rings from lung tissue removed at lobectomy or pneumonectomy
Briefly: Influence of antagonists on 5-CT-induced vasoconstriction of isolated human pulmonary arteries. Particulars: 5-CT in presence of SB224289 0.2 μM, GR55562 1 μM or LY393558 0.1 μM; control 5-CT (DMSO). In kind it is cell-based. As for the experimental part:
Lung tissue was received from 29 men and 5 women (mean age 65 ± 2 years) with lung carcinoma (without PAH) undergoing lobectomy or pneumonectomy. Before the operation, they received cephalosporins and heparin as anti-infection and antithrombotic prophylaxis, respectively. Isolation of hPAs has been described previously. When necessary, endothelium was disrupted by rubbing of the lumen with horse hair. […] Muscle tension was recorded by a force displacement transducer (BIO-SYS-TECH). […] Concentrations of antagonists and citalopram were taken from previous studies. In each preparation, only one experimental curve was determined.
as §2

The next assay deals with T2, 5-HT2AR (Homo sapiens, UniProt P28223).
T2 construct: Arterial rings (3–5 mm in length and 2–4 mm in outer diameter) were mounted in 10 ml organ baths; from tissue; host or cells: human pulmonary artery rings from lung tissue removed at lobectomy or pneumonectomy
Briefly: Influence of antagonists on α-methyl-5-HT-induced vasoconstriction of isolated human pulmonary arteries. In kind it is cell-based. Particulars: for Tension (contractile response to α-methyl-5-HT in absolute terms): α-methyl-5-HT in presence of ketanserin 0.01 μM or LY393558 0.1 μM, control α-methyl-5-HT (DMSO). As to the method:
Lung tissue was received from 29 men and 5 women (mean age 65 ± 2 years) with lung carcinoma (without PAH) undergoing lobectomy or pneumonectomy. Before the operation, they received cephalosporins and heparin as anti-infection and antithrombotic prophylaxis, respectively. Isolation of hPAs has been described previously. When necessary, endothelium was disrupted by rubbing of the lumen with horse hair. […] Muscle tension was recorded by a force displacement transducer (BIO-SYS-TECH). After equilibration, rings were exposed to high KCl (60 mM) Tyrode’s solution (equimolar substitution of NaCl by KCl) to check tissue viability and maximum contraction and to phenylephrine (1 µM) followed by acetylcholine (10 µM) to verify if the endothelium is intact. […] Concentrations of antagonists and citalopram were taken from previous studies. In each preparation, only one experimental curve was determined.
as §2

Assay [2] relates to human pulmonary arteries. As to the kind of experiment: Contraction of isolated human pulmonary arteries by agonists alone (organ bath, cumulative concentration-response curves). Particulars: for EC50 / Emax: Homo sapiens. The class given is cell-based. As for the experimental part:
as §1, §2

Another assay relates to α1-adrenoceptor. As to the kind of experiment: Influence of LY393558 on phenylephrine-induced vasoconstriction of isolated human pulmonary arteries. The class given is cell-based. As for the experimental part:
as §1
(§3) Results are given as mean ± SEM from n patients. Contractile responses were shown as percentages of the response to KCl 60 mM. GraphPad Prism 5.0 software was used to plot the mean data as sigmoidal CRCs. […]

A further assay has as its target 5-HT2ARs. Set-up: method as in PMID 11734182. Particulars: read-out: pKi at 5-HT2ARs (converted); cited from earlier work.
Assay [3] has as its target T3, thromboxane A2 (TP) receptor (Homo sapiens, UniProt P21731).
T3 construct: Arterial rings (3–5 mm in length and 2–4 mm in outer diameter) were mounted in 10 ml organ baths; from tissue; host or cells: human pulmonary artery rings from lung tissue removed at lobectomy or pneumonectomy
T3 sequence (P21731 1-343): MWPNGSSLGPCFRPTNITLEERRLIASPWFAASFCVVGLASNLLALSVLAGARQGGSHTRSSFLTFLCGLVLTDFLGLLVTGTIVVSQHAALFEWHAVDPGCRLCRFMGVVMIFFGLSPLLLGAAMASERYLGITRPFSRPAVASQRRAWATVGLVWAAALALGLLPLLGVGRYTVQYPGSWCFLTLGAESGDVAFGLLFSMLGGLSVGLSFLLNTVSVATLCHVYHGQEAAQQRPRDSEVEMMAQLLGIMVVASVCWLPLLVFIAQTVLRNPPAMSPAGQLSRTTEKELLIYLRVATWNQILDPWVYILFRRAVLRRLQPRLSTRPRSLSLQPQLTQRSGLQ
Briefly: Influence of LY393558 on U46619-induced vasoconstriction of isolated human pulmonary arteries. In kind it is cell-based. As for the experimental part: as §1, §3

Assay [4] relates to human pulmonary arteries. Set-up: method as in PMID 19541711. Particulars: hPAs, other studies; cited from earlier work.
The mark [5] stands for this setting: 5-HT in presence of: citalopram 1 μM, SB224289 0.2 μM, GR55562 1 μM, ketanserin 0.1 μM or combinations, 45 min incubation, endothelium-intact.
Where [6] appears, read: SB224289 0.2 μM, GR55562 1 μM, ketanserin 0.1 μM, endothelium-intact.
Setting [7] is: agonist alone (control of LY393558 experiment, Fig. 3), endothelium-intact hPAs.
The mark [8] stands for this setting: agonist alone, DMSO vehicle control, endothelium-intact hPAs.
[9] abbreviates: agonist alone, endothelium removed (-ENDO).
The mark [10] stands for this setting: agonist alone, endothelium-intact hPAs.

T2 sequence (P28223 whole entry): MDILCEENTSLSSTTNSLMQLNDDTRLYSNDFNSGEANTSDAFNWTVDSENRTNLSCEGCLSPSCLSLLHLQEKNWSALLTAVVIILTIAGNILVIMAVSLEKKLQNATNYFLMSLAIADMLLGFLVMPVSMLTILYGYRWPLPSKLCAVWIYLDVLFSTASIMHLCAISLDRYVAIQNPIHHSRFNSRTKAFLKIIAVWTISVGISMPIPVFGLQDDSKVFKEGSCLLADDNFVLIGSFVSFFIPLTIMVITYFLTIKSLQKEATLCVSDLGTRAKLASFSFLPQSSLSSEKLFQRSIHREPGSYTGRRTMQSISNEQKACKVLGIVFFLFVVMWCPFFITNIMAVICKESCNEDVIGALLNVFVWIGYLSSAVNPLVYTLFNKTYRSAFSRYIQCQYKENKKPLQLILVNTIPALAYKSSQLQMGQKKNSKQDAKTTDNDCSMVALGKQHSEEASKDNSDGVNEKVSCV
T1 sequence (P28222 whole entry): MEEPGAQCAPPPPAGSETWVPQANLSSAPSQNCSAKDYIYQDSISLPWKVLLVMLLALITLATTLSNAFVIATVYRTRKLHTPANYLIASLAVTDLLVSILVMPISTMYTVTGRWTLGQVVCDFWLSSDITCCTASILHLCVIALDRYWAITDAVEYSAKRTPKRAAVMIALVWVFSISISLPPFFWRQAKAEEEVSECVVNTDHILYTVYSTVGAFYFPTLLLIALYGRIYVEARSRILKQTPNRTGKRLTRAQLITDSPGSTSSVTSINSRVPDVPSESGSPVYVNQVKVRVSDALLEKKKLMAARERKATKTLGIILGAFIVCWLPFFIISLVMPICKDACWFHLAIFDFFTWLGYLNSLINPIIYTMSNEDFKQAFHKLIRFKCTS

`Cc1nc(-c2ccc(-c3ccc(C(=O)N4CCc5cc6c(cc54)C4(CCN(C)CC4)CO6)cc3)c(C)c2)no1` [SB224289]: the “affinity for the SERT” value in the assay on SERT is “has no affinity for the SERT”. In addition, the “Tension (contractile response to 5-HT in absolute terms)” value with human pulmonary arteries [1] (setting [5]) worked out at 7.0 ± 1.9 mN. Further, the “pA2 against 5-HT” value in the assay on human pulmonary arteries [1] (setting [6]) was 7.0 and 7.02. For the same compound, the “Tension (contractile response to 5-CT in absolute terms)” value at 5-HT1B/1DR is on record as 10.0 ± 3.3 mN.

Consider `CN(C)CCCc1cc(C(=O)Nc2ccc(-c3ccncc3)cc2)ccc1O` [GR55562], for which the “Tension (contractile response to 5-HT in absolute terms)” value in the assay on human pulmonary arteries [1] (setting [5]) turned out to be 7.2 ± 2.0 mN. The “pA2 against 5-HT” value in the assay on human pulmonary arteries [1] (setting [6]) was 6.6 and 6.63. In the assay with human pulmonary arteries [1], the “rightward shift of the CRC for 5-HT (factor)” value is given as 5.

As for `O=C(c1ccc(F)cc1)C1CCN(CCn2c(=O)[nH]c3ccccc3c2=O)CC1` [Ketanserin, ketanserin], the “vasoconstriction induced by α-methyl-5-HT diminished by” value on 5-HT2AR (LY393558, ketanserin 0.01 µM (Discussion)) worked out at 30%. The “Tension (contractile response to α-methyl-5-HT in absolute terms)” value on 5-HT2AR is 9.7 ± 2.3 mN. The “Tension (contractile response to 5-HT in absolute terms)” value in the assay on human pulmonary arteries [1] (setting [5]) was 7.7 ± 1.2 mN. For the same compound, the “pA2 against 5-HT” value is on record as 7.40 with human pulmonary arteries [1] (setting [6]) and 7.4 in the assay on human pulmonary arteries [1] (SB224289 0.2 μM, GR55562 1 μM, ketanserin 0.1 μM, endothelium-intact, listed as ketanserin). Moreover, the “rightward shift of the CRC for 5-HT (factor)” value in the assay with human pulmonary arteries [1] is 3.

A word on the pEC50: it is the EC50 on a negative log10 scale, so that one unit is a factor of ten. A higher pEC50 goes with a small EC50. On to `CCCCC[C@H](O)/C=C/[C@@H]1[C@@H](C/C=C\CCCC(=O)O)[C@H]2CO[C@@H]1C2` [U46619], for which, in the assay on human pulmonary arteries [2] (setting [7]), the “Emax (relative to the KCl-induced response)” value was determined as 109 ± 6% and the pEC50 is 8.60 ± 0.10.

As a reminder, the EC50 is the concentration at which the effect is half-maximal. A low value points to greater potency. Broadly, the Emax is the size of the effect at its maximum, as opposed to the concentration needed. In the assay on human pulmonary arteries [2] (setting [7]), `CNC[C@H](O)c1cccc(O)c1` [phenylephrine, (–)-phenylephrine] showed an EC50 of 3160 nM. The maximal response (Emax) in the assay with human pulmonary arteries [2] (agonist alone (control of LY393558 experiment, Fig. 3), endothelium-intact hPAs, read-out: Emax (relative to the KCl-induced response)) amounted to 68 ± 5%.

For the compound `NCCc1c[nH]c2ccc(O)cc12` [5-HT, serotonin], the EC50 in the assay on human pulmonary arteries [2] (setting [8]) is 457 nM; in the assay on human pulmonary arteries [2] (setting [9]), 1700 nM; with human pulmonary arteries [2] (setting [10]), 631 nM. The Emax with human pulmonary arteries [2] (read-out: Emax (percentage of the response to 60 mM KCl), agonist alone, DMSO vehicle control, endothelium-intact hPAs) was 82 ± 4%; in the assay on human pulmonary arteries [2] (read-out: Emax (percentage of the response to 60 mM KCl), agonist alone, endothelium removed (-ENDO)) it was 92 ± 4%; in the assay on human pulmonary arteries [2] (read-out: Emax (percentage of the response to 60 mM KCl), agonist alone, endothelium-intact hPAs), 94 ± 4%. Further, the figures for the “Tension (contractile response in absolute terms)” value in the assay with human pulmonary arteries [2] (setting [8]), in the assay with human pulmonary arteries [2] (setting [9]) and in the assay on human pulmonary arteries [2] (setting [10]) were 8.5 ± 1.8 mN, 9.4 ± 1.2 mN and 9.7 ± 1.0 mN, respectively.

For the compound `CC(N)Cc1c[nH]c2ccc(O)cc12` (stereo not drawn) [α-Methyl-5-HT, α-methyl-5-HT], in the assay on human pulmonary arteries [2] (setting [8]), the “Emax (percentage of the response to 60 mM KCl)” value was determined as 79 ± 5%, the “Tension (contractile response in absolute terms)” value worked out at 10.5 ± 1.0 mN and the pEC50 was found to be 5.89 ± 0.08.

Consider `CN(C)CCCC1(c2ccc(F)cc2)OCc2cc(C#N)ccc21` (stereo not drawn) [Citalopram], for which the “Tension (contractile response to 5-HT in absolute terms)” value with human pulmonary arteries [1] (5-HT + citalopram 1 μM, endothelium removed (-ENDO)) was 7.6 ± 1.3 mN; in the assay on human pulmonary arteries [1] (setting [5]), 8.9 ± 1.3 mN. In addition, in the assay with human pulmonary arteries [1] (citalopram 1 µM, endothelium-denuded preparations), the “influence on the potency of 5-HT” value is “enhanced the potency of 5-HT”. Further, the “influence on the CRC for 5-HT” value in the assay with human pulmonary arteries [1] (citalopram 1 µM, endothelium-intact hPAs) was “did not influence the CRC for 5-HT”.

As usually defined, the pA2 is a measure of antagonist potency on a negative log scale. Read a high pA2 as higher antagonist potency. Consider `CC(C)N1Cc2cc(S(C)(=O)=O)ccc2N(CCN2CC=C(c3c[nH]c4cc(F)ccc34)CC2)S1(=O)=O` [LY393558], for which the “Tension (contractile response to α-methyl-5-HT in absolute terms)” value at 5-HT2AR turned out to be 10.5 ± 2.4 mN. For the same compound, the “effect on the vasoconstrictory effects of phenylephrine” value in the assay with α1-adrenoceptor (LY393558 0.1 µM) is on record as “did not modify”. Besides, the “pA2 at human α1 receptors” value in the assay on α1-adrenoceptor (from lack of effect of 0.1 µM on phenylephrine response) is < 7.0. The Ki at 5-HT2ARs is ~100 nM; at SERT (read-out: Ki (SERT inhibition)), ~1 nM. In addition, the “Tension (contractile response to 5-HT in absolute terms)” value in the assay with human pulmonary arteries [1] (5-HT + LY393558 0.1 μM, control 5-HT (DMSO), endothelium-intact) was found to be 9.1 ± 1.7 mN. Besides, the “pA2 against 5-HT” value with human pulmonary arteries [1] (LY393558 0.1 μM, control 5-HT (DMSO), endothelium-intact) is 8.3 and 8.25. Moreover, the “effect on the vasoconstrictory effects of U46619” value in [3] (LY393558 0.1 µM) is given as “did not modify”. Besides, the “pA2 at human TP receptors” value in [3] (from lack of effect of 0.1 µM on U46619 response) is given as < 7.0. The “Tension (contractile response to 5-CT in absolute terms)” value on 5-HT1B/1DR was found to be 7.3 ± 2.0 mN.

`NCCc1c[nH]c2ccc(C(N)=O)cc12` [5-CT, 5-carboxamidotryptamine]: the “efficiency less than that of 5-HT” value in the assay with human pulmonary arteries [4] was 50%. In addition, in the assay with human pulmonary arteries [2] (setting [8]), the “Emax (percentage of the response to 60 mM KCl)” value was determined as 73 ± 6%, the “Tension (contractile response in absolute terms)” value is given as 8.0 ± 1.0 mN and the pEC50 is on record as 6.36 ± 0.09. For the same compound, the “efficacy lower than that of 5-HT” value in the assay on human pulmonary arteries [2] (hPAs, this study) is 20%.
